In PubChem BioAssay (NCI):
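Results reflect a 48-hour exposure of cells in 96-well plates to compound at five concentrations. GI50 = concentration required for 50% inhibition of growth. TGI marks complete inhibition of growth.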

Tests used:
Assay in all cases: inhibition of tumour cell growth, NCI panel, 48 h
DU-145 prostate = tested on: DU-145 prostate
HS 578T breast = tested on: HS 578T breast
MDA-MB-231 breast = tested on: MDA-MB-231 breast
MDA-MB-435 = tested on: MDA-MB-435
T-47D breast = tested on: T-47D breast
DMS 273 small cell lung = tested on: DMS 273 small cell lung
KM20L2 colon = tested on: KM20L2 colon
M19-MEL melanoma = tested on: M19-MEL melanoma
SNB-78 CNS = tested on: SNB-78 CNS
DMS 114 small cell lung = tested on: DMS 114 small cell lung
HOP-18 NSCLC = tested on: HOP-18 NSCLC

Structure (SMILES) | GI50 (DU-145 prostate) | TGI (DU-145 prostate) | GI50 (HS 578T breast) | TGI (HS 578T breast) | GI50 (MDA-MB-231 breast) | TGI (MDA-MB-231 breast) | GI50 (MDA-MB-435) | TGI (MDA-MB-435) | GI50 (T-47D breast) | TGI (T-47D breast) | TGI (DMS 273 small cell lung) | TGI (KM20L2 colon) | TGI (M19-MEL melanoma) | TGI (SNB-78 CNS) | TGI (DMS 114 small cell lung) | TGI (HOP-18 NSCLC)
c1cnn2ncc(-c3ccnc(Nc4ccc5c(c4)OCCO5)n3)c2c1 | 0.0844 µM | 1.45 µM | 0.0747 µM | 0.323 µM | 0.0914 µM | > 25 µM | 0.0813 µM | 0.516 µM | 0.084 µM | 0.495 µM |  |  |  |  |  | 
COc1cc(CNc2nc3ccc(C(F)(F)F)cc3nc2-c2ccccc2)cc(OC)c1OC |  |  |  |  |  |  |  |  |  |  | > 100 µM | > 100 µM | > 100 µM | > 100 µM |  | 
CC1OC(c2ccc3c(c2O)C(=O)C2=C(C3=O)C3(O)C(=O)CC(C)(O)CC3(O)C=C2)CC(O)C1O (stereo not drawn) |  | 29.1 µM |  | 53.2 µM |  | 6.17 µM |  | > 42.5 µM |  | 28.3 µM |  |  |  |  |  | 
OCc1ccc(N2CCOCC2)cc1Cl | > 100 µM | > 100 µM | > 100 µM | > 100 µM | > 100 µM | > 100 µM | > 100 µM | > 100 µM | 14.7 µM | > 84.1 µM |  |  |  |  |  | 
O=C1/C(=C/c2ccc([N+](=O)[O-])cc2)COc2ccc(O)cc21 | 13.5 µM | > 100 µM | 3.54 µM | > 100 µM | 4.77 µM | 36.9 µM | 5.21 µM | 29.7 µM | 9.73 µM | > 100 µM |  |  |  |  |  | 
C=C1C2Oc3ccccc3C1N(c1ccccc1)O2 (stereo not drawn) |  |  |  |  |  |  |  |  |  |  |  | > 100 µM | > 100 µM |  | 79 µM | 
Cc1ccc(C)c(N2C(=O)C(=O)C(c3nc4ccccc4s3)C(=Nc3cccc4c(=O)[nH][nH]c(=O)c34)C2=O)c1 (stereo not drawn) |  |  |  |  |  |  |  |  |  |  | > 100 µM | > 100 µM |  |  | > 100 µM | > 100 µM
N#Cc1c(-c2ccco2)cc(-c2ccccc2)[nH]c1=O |  |  |  |  |  |  |  |  |  |  | > 100 µM | > 100 µM | > 100 µM | > 100 µM |  | 
COc1ccc(-c2cnoc2-c2cc(OC)c3c(c2)OCCO3)cc1 | 0.0456 µM | > 46.9 µM | 0.0283 µM | 11.7 µM | 0.0509 µM |  |  |  |  |  |  |  |  |  |  | 
c1ccc2[nH]c(CNc3ccc(C4C[Se]N=N4)cc3)nc2c1 (stereo not drawn) |  |  |  |  |  |  |  |  |  |  | > 100 µM |  | > 100 µM |  | 72.6 µM | > 100 µM
O=C1c2cccc3cccc(c23)C(=O)N1O |  | > 100 µM |  | > 100 µM |  | > 100 µM |  | > 100 µM |  | > 100 µM |  |  |  |  |  | 
O=C(O)c1ccccc1C(=O)c1ccc2c(c1)Cc1ccccc1-2 |  | > 100 µM |  | > 100 µM |  | > 100 µM |  | > 100 µM |  | > 100 µM |  |  |  |  |  | 
CCCCCCCCCCCCCC[n+]1cccc(C(N)=O)c1 | 3.3 µM | 11.6 µM | 2.64 µM | 10.3 µM | 1.45 µM | 4.54 µM | 1.5 µM | 3.24 µM | 4.66 µM | 27.6 µM |  |  |  |  |  | 
COc1ccc(C2=C(N3CCc4ccccc43)C(=O)NC2=O)cc1 | > 25 µM | > 25 µM | > 20.9 µM | > 25 µM | > 22.4 µM | > 25 µM | > 25 µM | > 25 µM | > 17.8 µM | > 25 µM |  |  |  |  |  | 
N#C/C(=C1\SC(N=Nc2ccc(Cl)cc2)C(=O)N1c1ccccc1)c1nc2ccccc2[nH]1 (stereo not drawn) |  |  |  |  |  |  |  |  |  |  | > 100 µM | > 100 µM | 95.4 µM | > 100 µM |  | 
Clc1ccc2c(c1)N(c1ncnc3ccc(-c4cnc5[nH]ncc5c4)cc13)CC2 | 0.351 µM | > 100 µM | 0.162 µM | 0.651 µM | 0.719 µM | > 100 µM | 0.804 µM | > 100 µM | 0.0424 µM | 0.693 µM |  |  |  |  |  | 
COc1ccc(Nc2nccc(N3CCN(c4c5ccc(Cl)cc5nc5ccc(OC)cc45)CC3)n2)cc1 | 28.7 µM | > 100 µM | 5.78 µM | > 100 µM | 4.63 µM | > 100 µM | 8.28 µM | > 100 µM | 2.99 µM | 44.7 µM |  |  |  |  |  | 
COc1ccc(C(=O)c2nc3ccccc3n2CC(=O)c2ccc(Cl)cc2)cc1 | 4.51 µM | > 100 µM | 2.49 µM | 12.4 µM | 15.6 µM | > 100 µM | 0.336 µM | 1.79 µM | 3.65 µM | > 100 µM |  |  |  |  |  | 
C/C1=C\CC[C@@](C)(O)[C@@H]2C[C@H](CC/C(C)=C/CC1)C1(CC1)C(=O)O2 | 41.8 µM | > 100 µM | 22.1 µM | 60 µM | 13.6 µM | 32.6 µM | 16.5 µM | 35.1 µM | 16.7 µM | 67.2 µM |  |  |  |  |  | 
Cc1cc(C)n(C2=NS(=O)(=O)c3ccccc3N2C)n1 |  | > 100 µM |  | > 100 µM |  | > 100 µM |  | > 100 µM |  | > 100 µM |  |  |  |  |  | 
Cc1cc2c(cc1Cl)S/C(=C/C(=O)O)C(Nc1cccc3nsnc13)=NS2(=O)=O | > 16 µM | > 57.3 µM | 30.5 µM | > 60.7 µM | 47.4 µM | > 69.4 µM | 56.2 µM | > 71 µM | > 77.8 µM | > 100 µM |  |  |  |  |  | 
Cc1ccc(NC(=O)/C(Cc2cc(=O)oc3cc(O)ccc23)=N\NC(=O)C[N+](C)(C)C)cc1C |  | > 100 µM |  | > 100 µM |  | > 100 µM |  | > 100 µM |  | > 100 µM |  |  |  |  |  | 
O=C(NCCN1CCNCC1)c1ccc(Nc2nc3ccccc3c3occc23)cc1 | 3.44 µM | 12.5 µM | 14.3 µM | 38.4 µM | 11.8 µM | 25.8 µM | 3.1 µM | 8.51 µM | 5.71 µM | 35.4 µM |  |  |  |  |  | 
Cc1ccc(NC(=O)/C(Cc2nc3ccc([N+](=O)[O-])cc3[nH]c2=O)=N\NC(=O)C[n+]2ccccc2)c(C)c1 |  | > 100 µM |  | > 100 µM |  | 86.4 µM |  | > 100 µM |  |  |  |  |  |  |  | 
CCOC(=O)N1CCN(CCCCCOc2ccccc2C2CCCCC2)CC1 | 14.4 µM | 32.3 µM | 12.8 µM | 34.8 µM | 5.1 µM | 21.5 µM | 3.88 µM | 15.1 µM | 2.35 µM | 14.4 µM |  |  |  |  |  | 
Cc1ccc2oc(=O)c(-c3ccccc3)nc2c1 |  |  |  |  |  |  |  |  |  |  | 37.6 µM |  | 64.8 µM |  |  | 84.4 µM
Cc1cccc(N=Nc2ccc(N=Nc3c(O)ccc4ccccc34)cc2C)c1 |  |  |  | > 100 µM |  | > 100 µM |  | > 100 µM |  |  |  |  |  |  |  | 
